Measured values taken from patent publication US7777070B2, “Acyloxyalkyl carbamate prodrugs of tranexamic acid, methods of synthesis and use” (XenoPort, Inc., priority 2005, dated 2010).
Where two headings read alike, the source gives them in different places. Blank lines part the entries; values can stand above or below the molecule they belong to.

Experiments:
[1] = system: Caco-2 cells; test: Caco-2 cellular permeability; conditions: ratio of Papp apical to basolateral / basolateral to apical
Protocol: (§1) For example, passive permeability can be evaluated by examining the flux of a prodrug across a cultured polarized cell monolayer (e.g., Caco-2 cells).
(§2) Caco-2 cells obtained from continuous culture (passage less than 28) were seeded at high density onto Transwell polycarbonate filters. Cells were maintained with DMEM/10% fetal bovine serum, 1 mM nonessential amino acids, and 6 mM L-Gln, 5% CO2/95% O2, at 37° C. until the day of the experiment. Permeability studies were conducted at pH 6.5 apically (in 50 mM MES buffer containing 1 mM CaCl2, 1 mM MgCl2, 150 mM NaCl, 3 mM KCl, 1 mM NaH2PO4, 5 mM glucose) and pH 7.4 basolaterally (in Hanks' balanced salt solution containing 10 mM HEPES) in the presence of efflux pump inhibitors (250 μM MK-571 and 250 μM Verapamil). Inserts were placed in 12 or 24 well plates containing buffer and incubated for 30 min at 37° C. Prodrug (200 μM) was added to the apical or basolateral compartment (donor) and concentrations of prodrug and/or released parent drug in the opposite compartment (receiver) were determined at intervals over 1 hour using LC/MS/MS. Values of apparent permeability (Papp) were calculated using the equation: Papp=Vr(dC/dt)//(ACo) where Vr is the volume of the receiver compartment in mL; dC/dt is the total flux of prodrug and parent drug (μM/sec), determined from the slope of the plot of concentration in the receiver compartment versus time; C0 is the initial concentration of prodrug in μM; and A is the surface area of the membrane in cm^2.

[2] = cited from earlier work
[3] = cited from earlier work; remark: listed apart in the source
[4] = Pharmacokinetics of tranexamic acid after administration of tranexamic acid or prodrug to rats; format: in vivo, Sprague-Dawley rats; conditions: for F* (bioavailability of tranexamic acid) / Cmax / AUCinf / AUCt / T1/2-λ / Tmax / AUC(0-inf) / bioavailability / half-life / AUC(0-t): rat; for F* (bioavailability of tranexamic acid) / bioavailability: versus i.v. tranexamic acid AUCinf 22.2 hr·μg/mL; for bioavailability: read-out: F* (bioavailability of tranexamic acid); for half-life: read-out: T1/2-λ (converted)
Protocol: Tranexamic acid or a tranexamic acid prodrug of the present disclosure was administered as an intravenous bolus injection (i.v.), by oral gavage (p.o.), or by intracolonic (i.c.) administration via an indwelling catheter in the ascending colon to groups of four to six adult male Sprague-Dawley rats (weight approximately 250 g). Animals were fasted overnight before the study and for 4 hours post-dosing and were conscious at the time of the experiment. When administered intravenously, tranexamic acid was administered as a solution in water at a dose equivalent to 16 mg (0.1 mmol) of tranexamic acid per kg body weight. Prodrugs were orally or intracolonically administered as a suspension in 0.5% methyl cellulose in 0.1% Tween 80 at a dose equivalent to 16 mg (0.1 mmol) of tranexamic acid per kg body weight. Blood samples (300 μL) were obtained via a jugular vein cannula at intervals over 8 hours after oral dosing. Blood was quenched immediately using methanol and then was frozen at −80° C. until analyzed.
The following procedure was used to prepared blood samples for analysis:
1. Rat blood (100 μL) was collected at different times into K2EDTA tubes, 300 μL of methanol, and the mixture was vortexed to mix the ingredients.
2. Blank rat blood (90 μL) was quenched with 300 μL of methanol. Then ten μL of a standard stock solution (0.04, 0.2, 1, 5, 25, and 100 μg/mL) were added to the tube individually. Then 20 μL of p-chlorophenylalanine (5 μg/mL in 50% methanol) was added to each tube to make up a final calibration standard (0.004, 0.02, 0.1, 0.5, 2.5, and 10 μg/mL). The samples were vortexed and centrifuged at 14,000 rpm for 20 min.
3. To the quenched blood samples were added 20 μL of p-chlorophenylalanine (5 μg/mL in 50% methanol), the samples were vortexed and centrifuged at 14,000 rpm for 20 min.
4. The supernatant was analyzed by LC/MS/MS.
The following method was used for LC/MS/MS Analysis of the prepared blood samples. An API 4000 or 2000 LC/MS/MS spectrometer equipped with Agilent 1100 binary pumps and a CTC HTS-PAL autosampler were used in the analysis. A ThermoHypersil-BetaSil C18, 100×4.6 mm, 5 μm column was used during the analysis. The mobile phase for the analysis of tranexamic acid and prodrug was (A) 0.1% formic acid in water, and (B) 0.1% formic acid in acetonitrile. The gradient condition was: 2% eluent-B to 95% eluent-B for 2.5 min, then to 98% eluent-B to 4.0 min. At 4.1 min, it was returned to 2% eluent-B and maintained at 2% eluent-B till 6.0 min. The flow rate was 1 mL/min. An ESI source was used on the API 4000. The analysis of tranexamic acid was performed in positive ion mode for and negative ion mode was used for analysis of tranexamic acid prodrugs.
The MRM transition for each analyte was optimized using standard solutions. 20 μL of the sample was injected. Non-compartmental analysis was performed using WinNonlin (v.3.1 Professional Version, Pharsight Corporation, Mountain View, Calif.) on individual animal profiles. Summary statistics on major parameter estimates was performed for Cmax (peak observed concentration following dosing), Tmax (time to maximum concentration is the time at which the peak concentration was observed), AUC(0-t) (area under the serum concentration-time curve from time zero to last collection time, estimated using the log-linear trapezoidal method), AUC(0-∞), (area under the serum concentration time curve from time zero to infinity, estimated using the log-linear trapezoidal method to the last collection time with extrapolation to infinity), and t1/2 (terminal half-life).
The oral or intracolonic bioavailability (F) of tranexamic acid was determined by comparing the area under the tranexamic acid concentration vs. time curve (AUC) following oral or intracolonic administration of tranexamic acid or prodrug with the AUC of the tranexamic acid concentration vs. time curve following intravenous administration of tranexamic acid on a dose normalized basis. […]

[5] = system: Caco-2 cells
Protocol: as §1, §2

[6] = tranexamic acid in blood, i.c., dose equivalent to 16 mg/kg, mean (SD)
[7] = tranexamic acid in blood, p.o., dose equivalent to 16 mg/kg, mean (SD)
[8] = male, Sprague-Dawley, whole blood, po, tranexamic acid in blood, dose equivalent to 16 mg/kg, mean (SD)
[9] = male, Sprague-Dawley, whole blood, tranexamic acid in blood, i.c., dose equivalent to 16 mg/kg, mean (SD)

SMILES: CC(OC(=O)NC[C@H]1CC[C@H](C(=O)O)CC1)OC(=O)c1ccccc1 (single isomer, unassigned) [Compound 23, trans-4-{[1-(Benzoyloxy)ethoxycarbonyl]aminomethyl}-Cyclohexanecarboxylic Acid]
- Ratio A-B/B-A [1]: 4.5

SMILES: O=C(NC[C@H]1CC[C@H](C(=O)O)CC1)OCOC(=O)c1ccccc1 [Compound 7, trans-4-{[(Benzoyloxy)methoxycarbonyl]aminomethyl}-Cyclohexanecarboxylic Acid]
- Ratio A-B/B-A [1]: 4.2

SMILES: CC(C)C(=O)OCOC(=O)NC[C@H]1CC[C@H](C(=O)O)CC1 [Compound 4, trans-4-{[(2-Methylpropanoyloxy)methoxycarbonyl]aminomethyl}-Cyclohexanecarboxylic Acid]
- Ratio A-B/B-A [1]: 7.7

SMILES: CCOC(=O)OC(C)OC(=O)[C@H]1CC[C@H](CN)CC1 (relative stereo) [Kabi 2161, 1-(ethoxycarbonyl)oxyethyl trans-4-(aminomethyl)-cyclohexanecarboxylate]
- effect on menstrual blood loss ([2]; women suffering from idiopathic menorrhagia): effective in reducing menstrual blood loss
- oral bioavailability of tranexamic acid from prodrug ([3]; human patients, oral): markedly improved

SMILES: CC(OC(=O)NC[C@H]1CC[C@H](C(=O)[O-])CC1)OC(=O)C(C)C.[Na+] (stereo partly drawn) [Compound 14, Sodium trans-4-{[1-(2-Methylpropanoyloxy)ethoxycarbonyl]-aminomethyl}-Cyclohexanecarboxylate]
- Ratio A-B/B-A [5]: 3.4

SMILES: NC[C@H]1CC[C@H](C(=O)O)CC1 [Compound 1, trans-4-(aminomethyl)-cyclohexanecarboxylic acid, reference compound]
- AUC(0-inf) ([4]; male, Sprague-Dawley, whole blood, iv, intravenously administered tranexamic acid, 16 mg/kg): 22200 ng·h/mL
- bioavailability ([4]; male, Sprague-Dawley, whole blood, other: intracolonic, 16 mg/kg, i.c., mean (SD)): 5%
- bioavailability ([4]; male, Sprague-Dawley, whole blood, po, 16 mg/kg, p.o., mean (SD)): 37%
- Cmax ([4]; male, Sprague-Dawley, whole blood, po, tranexamic acid in blood, p.o., dose equivalent to 16 mg tranexamic acid per kg, mean (SD), read-out: Cmax): 2060 ng/mL
- half-life ([4]; male, Sprague-Dawley, whole blood, po, tranexamic acid in blood, p.o., dose equivalent to 16 mg/kg, mean (SD)): 1.9 h
- Tmax ([4]; male, Sprague-Dawley, whole blood, po, tranexamic acid in blood, p.o., dose equivalent to 16 mg/kg, mean (SD), read-out: Tmax): 1.1 h
- AUC(0-inf) [4, 8]: 7800 ng·h/mL
- AUC(0-t) [4, 8]: 7300 ng·h/mL
- Cmax ([4]; male, Sprague-Dawley, whole blood, tranexamic acid in blood, i.c. (intracolonic), dose equivalent to 16 mg/kg, mean (SD), read-out: Cmax): 220 ng/mL
- AUC(0-inf) [4, 9]: 800 ng·h/mL
- AUC(0-t) [4, 9]: 600 ng·h/mL
- half-life [4, 9]: 1.7 h
- Tmax ([4]; male, Sprague-Dawley, whole blood, tranexamic acid in blood, i.c., dose equivalent to 16 mg/kg, mean (SD), read-out: Tmax): 3.1 h
- reduction of menstrual blood loss ([2]; women with menorrhagia): ~50%
- Ratio A-B/B-A [1]: 1.3
- absorption following rectal administration ([3]; rectal administration in humans (Almer et al.)): poorly absorbed
- oral bioavailability ([3]; tranexamic acid, oral): ~30%
- terminal elimination half-life ([3]; tranexamic acid): ~2 h

SMILES: CCCC(OC(=O)NC[C@H]1CC[C@H](C(=O)O)CC1)OC(=O)C(C)C (relative stereo) [Compound 36, trans-4-{[1-(2-Methylpropanoyloxy)butoxycarbonyl]aminomethyl}-Cyclohexanecarboxylic Acid]
- Ratio A-B/B-A [1]: 4.5

Next, values leading:

- Ratio A-B/B-A [1]: 3.1
SMILES: CC(C)C(OC(=O)NC[C@H]1CC[C@H](C(=O)O)CC1)OC(=O)C1CCCCC1 (relative stereo) [Compound 48, trans-4-{[1-(Cyclohexylcarbonyloxy)-2-methylpropoxycarbonyl]aminomethyl}-Cyclohexanecarboxylic Acid]

- Ratio A-B/B-A [1]: 2.9
SMILES: CC(C)C(OC(=O)NC[C@H]1CC[C@H](C(=O)O)CC1)OC(=O)c1ccccc1 (relative stereo) [Compound 49, trans-4-{[1-(Benzoyloxy)-2-methylpropoxycarbonyl]aminomethyl}-Cyclohexanecarboxylic Acid]

- Ratio A-B/B-A [1]: 2.2
SMILES: CC(C)C(=O)OC(OC(=O)NC[C@H]1CC[C@H](C(=O)O)CC1)C(C)C (single isomer, unassigned) [Compound 44, trans-4-{[1-(2-Methylpropanoyloxy)-2-methylpropoxycarbonyl]aminomethyl}-Cyclohexanecarboxylic Acid]

- Ratio A-B/B-A [1]: 4.0
SMILES: CC(C)C(=O)O[C@@H](C)OC(=O)NC[C@H]1CC[C@H](C(=O)O)CC1 [Compound 17, (−)-trans-4-({[(1R)-1-(2-Methylpropanoyloxy)ethoxy]carbonylamino}methyl)-Cyclohexanecarboxylic Acid]

- F* (bioavailability of tranexamic acid) ([4]; i.c., mean (SD)): 98 (10) %
- levels of prodrug following oral gavage administration ([4]; intact prodrug in blood, oral gavage, rat (FIG. 2)): below the level of detection
- F* (bioavailability of tranexamic acid) ([4]; p.o., mean (SD)): 73 (9) %
- Cmax ([4]; tranexamic acid in blood, i.c. (intracolonic), dose equivalent to 16 mg/kg, mean (SD)): 7.82 (5.2) μg/mL
- AUCinf [4, 6]: 21.8 µg·h/mL
- AUCt [4, 6]: 21.5 (2.3) hr · μg/mL
- T1/2-λ [4, 6]: 4.2 (0.8) h
- Tmax [4, 6]: 0.5 (0.1) h
- Cmax ([4]; tranexamic acid in blood, p.o., dose equivalent to 16 mg tranexamic acid per kg, mean (SD)): 5.64 (0.58) μg/mL
- AUCinf [4, 7]: 17.1 (2.0) hr · μg/mL
- AUCt [4, 7]: 15.7 (2.0) hr · μg/mL
- T1/2-λ [4, 7]: 2.2 (0.2) h
- Tmax [4, 7]: 0.8 (0.3) h
- Ratio A-B/B-A [1]: 4.8
SMILES: CC(OC(=O)NC[C@H]1CC[C@H](C(=O)O)CC1)OC(=O)C(C)C (stereo partly drawn) [Compound 13, trans-4-{[1-(2-Methylpropanoyloxy)ethoxycarbonyl]-aminomethyl}-Cyclohexanecarboxylic Acid]

- Ratio A-B/B-A [1]: 6.1
SMILES: CC(C)C(=O)O[C@H](C)OC(=O)NC[C@H]1CC[C@H](C(=O)O)CC1 [Compound 15, (+)-trans-4-({[(S)-1-(2-Methylpropanoyloxy)ethoxy]carbonylamino}methyl)-Cyclohexanecarboxylic Acid]

- Ratio A-B/B-A [1]: 4.9
SMILES: CCCC(=O)OC(C)OC(=O)NC[C@H]1CC[C@H](C(=O)O)CC1 (relative stereo) [Compound 10, trans-4-{[1-(Butanoyloxy)ethoxycarbonyl]aminomethyl}-Cyclohexanecarboxylic Acid]

- Ratio A-B/B-A [1]: 2.9
SMILES: CCCCC(=O)OC(OC(=O)NC[C@H]1CC[C@H](C(=O)O)CC1)C(C)C (relative stereo) [Compound 42, trans-4-{[1-(Pentanoyloxy)-2-methylpropoxycarbonyl]aminomethyl}-Cyclohexanecarboxylic Acid]

- Ratio A-B/B-A [1]: 5.2
SMILES: CC(C)CC(=O)OC(C)OC(=O)NC[C@H]1CC[C@H](C(=O)O)CC1 (single isomer, unassigned) [Compound 19, trans-4-{[1-(3-Methylbutanoyloxy)ethoxycarbonyl]aminomethyl}-Cyclohexanecarboxylic Acid]
